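All cell lines were grown in 96-well plates and treated with compound for 48 hours. At the GI50, growth is halved.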 Calls of active or inactive are those of the source. No stated cut-off is given here; in the data, active = GI50 up to about 1.1 µM and inactive = higher.
Assays:
Test in all cases: NCI-60 cell line screen, 48 h
NCI-H226 = tested on: NCI-H226
NCI-H23 = tested on: NCI-H23
UACC-257 = tested on: UACC-257
SNB-75 = tested on: SNB-75
IGROV-1 = tested on: IGROV-1
SK-MEL-5 = tested on: SK-MEL-5
OVCAR-5 = tested on: OVCAR-5
SK-OV-3 = tested on: SK-OV-3
ACHN = tested on: ACHN
LOX IMVI = tested on: LOX IMVI
HL-60 = tested on: HL-60
COLO 205 = tested on: COLO 205
OVCAR-4 = tested on: OVCAR-4
CCRF-CEM = tested on: CCRF-CEM
TK-10 = tested on: TK-10
OVCAR-3 = tested on: OVCAR-3
SK-MEL-28 = tested on: SK-MEL-28
Hs-578T = tested on: Hs-578T
T47D = tested on: T47D
BT-549 = tested on: BT-549

Measured: GI50

CC1=CC(=O)NP(=O)(Oc2ccc(Cl)cc2)N1 (stereo not drawn)
inactive: NCI-H226 > 100 µM | NCI-H23 > 100 µM | UACC-257 > 100 µM | SNB-75 > 100 µM | IGROV-1 > 100 µM | SK-MEL-5 > 100 µM | OVCAR-5 > 100 µM | SK-OV-3 > 100 µM | ACHN > 100 µM | LOX IMVI > 100 µM | HL-60 55.6 µM | COLO 205 > 100 µM | OVCAR-4 > 100 µM | CCRF-CEM > 100 µM | TK-10 > 100 µM | OVCAR-3 > 100 µM | SK-MEL-28 > 100 µM

Cc1ccc(S(=O)(=O)N[C@H](C(=O)O)c2ccccc2)cc1
inactive: NCI-H226 > 100 µM | NCI-H23 > 100 µM | UACC-257 > 100 µM | SNB-75 > 100 µM | IGROV-1 > 100 µM | SK-MEL-5 > 100 µM | OVCAR-5 > 100 µM | SK-OV-3 > 100 µM | ACHN > 100 µM | LOX IMVI > 100 µM | HL-60 > 100 µM | COLO 205 > 100 µM | OVCAR-4 > 100 µM | CCRF-CEM > 100 µM | TK-10 > 100 µM | OVCAR-3 > 100 µM | SK-MEL-28 > 100 µM

C/C(=N\N(c1ccccc1)c1ccccc1)c1c(O)cc(C)oc1=O
inactive: NCI-H226 > 100 µM | NCI-H23 40.1 µM | UACC-257 47.8 µM | SNB-75 > 100 µM | SK-OV-3 > 100 µM | ACHN > 100 µM | LOX IMVI > 100 µM | HL-60 > 10 µM | OVCAR-4 45.1 µM | CCRF-CEM 89.7 µM | TK-10 > 100 µM | SK-MEL-28 > 100 µM

CC1=C(/C(C)=N/NS(=O)(=O)c2ccc(C)cc2)Sc2ccccc2N1
inactive: NCI-H226 > 100 µM | NCI-H23 89.3 µM | UACC-257 65.5 µM | SNB-75 75.7 µM | IGROV-1 > 100 µM | SK-MEL-5 47.5 µM | OVCAR-5 > 100 µM | SK-OV-3 > 100 µM | ACHN > 100 µM | LOX IMVI 70.8 µM | HL-60 39.4 µM | COLO 205 48.1 µM | OVCAR-4 > 100 µM | CCRF-CEM 32.9 µM | TK-10 > 100 µM | OVCAR-3 58.2 µM | SK-MEL-28 > 100 µM

Cc1cc(C(=O)NCCN(C)C)c2nc3ccccc3nc2c1
inactive: NCI-H226 3.44 µM | NCI-H23 5.27 µM | UACC-257 4.16 µM | SNB-75 4.52 µM | IGROV-1 4.81 µM | SK-MEL-5 4.44 µM | OVCAR-5 7.43 µM | SK-OV-3 11.7 µM | ACHN 2.22 µM | LOX IMVI 2.22 µM | HL-60 3.41 µM | COLO 205 3.08 µM | OVCAR-4 4.75 µM | TK-10 4.42 µM | OVCAR-3 5.71 µM | SK-MEL-28 5.05 µM

N#CC(NNC(=O)Cc1ccccc1)c1ccc([N+](=O)[O-])cc1 (stereo not drawn)
inactive: NCI-H226 > 100 µM | NCI-H23 > 100 µM | UACC-257 > 100 µM | SNB-75 65.6 µM | IGROV-1 > 100 µM | SK-MEL-5 > 100 µM | OVCAR-5 > 100 µM | SK-OV-3 > 100 µM | ACHN > 100 µM | LOX IMVI > 100 µM | HL-60 > 100 µM | COLO 205 > 100 µM | OVCAR-4 > 100 µM | CCRF-CEM > 100 µM | TK-10 > 100 µM | SK-MEL-28 > 100 µM

CC(NC1=NCCO1)c1ccccc1Cl (stereo not drawn)
inactive: NCI-H226 58.1 µM | NCI-H23 > 100 µM | UACC-257 > 100 µM | SNB-75 96.2 µM | IGROV-1 > 100 µM | SK-MEL-5 > 100 µM | Hs-578T > 100 µM | T47D > 100 µM | OVCAR-5 > 100 µM | SK-OV-3 > 100 µM | ACHN > 100 µM | LOX IMVI > 100 µM | HL-60 > 100 µM | COLO 205 > 100 µM | OVCAR-4 > 100 µM | CCRF-CEM > 100 µM | TK-10 > 100 µM | OVCAR-3 > 100 µM | SK-MEL-28 > 100 µM

CC(C)=CCN(N=O)c1ncnc2[nH]cnc12
inactive: NCI-H226 > 100 µM | NCI-H23 > 100 µM | UACC-257 > 100 µM | SNB-75 54.8 µM | IGROV-1 > 100 µM | SK-MEL-5 > 100 µM | Hs-578T > 100 µM | T47D 94.6 µM | OVCAR-5 > 100 µM | SK-OV-3 > 100 µM | ACHN > 100 µM | LOX IMVI 92.5 µM | HL-60 > 100 µM | COLO 205 > 100 µM | OVCAR-4 89.5 µM | CCRF-CEM > 100 µM | TK-10 > 100 µM | OVCAR-3 > 100 µM | SK-MEL-28 > 100 µM

CC(Oc1ccc(OCC2CCCCC2)cc1)C(=O)OCC(=O)c1ccc(-c2ccccc2)cc1 (stereo not drawn)
inactive: NCI-H226 > 100 µM | NCI-H23 > 100 µM | UACC-257 > 100 µM | SNB-75 > 100 µM | IGROV-1 > 100 µM | SK-MEL-5 > 100 µM | SK-OV-3 > 100 µM | ACHN > 100 µM | LOX IMVI > 100 µM | HL-60 > 100 µM | OVCAR-4 > 100 µM | CCRF-CEM > 100 µM | TK-10 > 100 µM | OVCAR-3 > 100 µM | SK-MEL-28 > 100 µM

CC(C)C(/C=C/c1ccccc1)=N\NC(=O)N/N=C(/C=C/c1ccccc1)C(C)C
inactive: NCI-H226 18.2 µM | NCI-H23 53.7 µM | UACC-257 44 µM | SNB-75 25.8 µM | IGROV-1 39.1 µM | SK-MEL-5 21.7 µM | OVCAR-5 38.2 µM | SK-OV-3 40.2 µM | ACHN 26.9 µM | LOX IMVI 32.4 µM | HL-60 15.2 µM | COLO 205 18.4 µM | OVCAR-4 35 µM | CCRF-CEM 28.2 µM | TK-10 33.8 µM | SK-MEL-28 74 µM

[N-]=[N+]=CC(=O)OC1CCOCC1
inactive: NCI-H226 > 100 µM | NCI-H23 > 100 µM | UACC-257 > 100 µM | IGROV-1 > 100 µM | SK-MEL-5 > 100 µM | OVCAR-5 > 100 µM | SK-OV-3 > 100 µM | ACHN > 100 µM | LOX IMVI > 100 µM | HL-60 > 100 µM | COLO 205 > 100 µM | OVCAR-4 > 100 µM | CCRF-CEM > 100 µM | TK-10 > 100 µM | BT-549 > 100 µM | OVCAR-3 > 100 µM | SK-MEL-28 > 100 µM

CC1=NN(c2cccc(Cl)c2)C2(C1=Cc1ccc(N(C)C)cc1)C(Cl)C(=O)N2c1nc2ccccc2s1 (stereo not drawn)
inactive: NCI-H226 > 100 µM | NCI-H23 45.5 µM | UACC-257 > 100 µM | IGROV-1 40.7 µM | SK-MEL-5 49.1 µM | Hs-578T 23.5 µM | T47D 50.8 µM | OVCAR-5 > 100 µM | SK-OV-3 34.4 µM | ACHN 53.2 µM | LOX IMVI > 100 µM | HL-60 > 100 µM | OVCAR-4 24.2 µM | CCRF-CEM 50.5 µM | TK-10 76.4 µM | OVCAR-3 39.5 µM | SK-MEL-28 > 100 µM
